Activity calls are given as the source filed them. No cut-off for these calls is given here.
Tests used:
[1] = In-vivo inhibition of BIO-induced Wnt/beta-catenin signaling pathway in zebrafish embryo assessed as reversal of eyeless phenotype to small and normal like eyes at 20 uM measured at 48 hrs post fertilization; type: functional; settings: Danio rerio
[2] = system: HEK293T; experiment: Inhibition of Wnt/beta-catenin signaling pathway in HEK293T cells assessed as downregulation of BIO-induced nonphosphorylated beta-catenin level at 20 uM incubated for 12 hrs by immunoblotting analysis; type: cell-based; settings: Homo sapiens

Structure (SMILES) | inhibition in vivo at 20 µM [1] [%] | inhibition [2]
CC(=O)O[C@H]1[C@@H]2C(=O)c3c(C)cc(O)c4c3[C@@]1(COC4=O)c1c(O)c3c4c(c(O)cc(C)c4c12)C(=O)OC3 | 100 | Active
CC(=O)O[C@H]1[C@@H]2C(=O)c3c(C)cc(O)c4c3[C@@]1(COC4=O)c1c(O)c3c4c(c(O)cc(C)c4c12)C(=O)O3 | 80 | Active
Cc1cc(O)c2c3c1C(=O)[C@@H]1C4=C(C(=O)c5cn(CCCC(=O)O)c(=O)c6c(O)cc(C)c4c56)[C@@]3(COC2=O)[C@H]1O | 96.6 | Active

— ChEMBL document CHEMBL6092184, “Talauromides A-G, Nitrogen-Containing Heptacyclic Oligophenalenone Dimers from the Soil Fungus Talaromyces stipitatus BMC-16” (2024)
